Laboratory results reported in patent US4632978A, “6-serine, des-19-leucine calcitonin” (Armour Pharmaceutical Corp., priority 1985, dated 1986).
Bridge positions count the residues as written; N and C are the ends. Ends that are not written are not given here.

Assays:
[1] = literature values, Monikawa et al.; cited from earlier work
[2] = tested on: serum calcium concentration; test: Biological assay of calcitonin analogs in vivo: reduction of serum calcium concentration, 2×2 parallel line assay against synthetic salmon calcitonin standard; settings: rats, subcutaneous injection, blood withdrawn 1 hour later, vs synthetic salmon calcitonin standard
Procedure: Biological Assay Of Calcitonin Analogs In Vivo
The biological potency of Ser^6, des-Leu^19 -salmon calcitonin was determined by comparing the reduction of serum calcium concentration which followed administration by graded doses of Ser^6, des-Leu^19 SCT and synthetic salmon calcitonin standard. Rats were divided into four groups of seven animals, and each group was assigned at random to a dose of standard or test solution. Low and high doses where chosen from the linear portion of the dose-response curve. For the salmon calcitonin standard, the values were 0.7 and 2.1 ng. peptide/100 g. body weight (BW). This dose approximates 3 and 9 MU/100 g. BW. Peptides were given by subcutaneous injection (0.2 ml/100 g. BW) and blood was withdrawn 1 hour later for serum calcium determination. Sera are processed and analyzed within two hours of collection. […]. Results were analyzed by a 2×2 parallel line assay [Gaddum, J. H., J. Pharm. Pharmacol., 5, 345 (1953)]. The standard salmon calcitonin used was independently determined to contain greater than 4,000 IU/mg. Ser^6,des-Leu^19 -SCT assayed at 8400 IU/mg.

For “(1,7-α-L-aminosuberic acid)eel calcitonin”, the hypocalcemic potency [1] is listed as “about 3400 IU/mg”.

In the case of “6-serine, des-19-leucine-salmon calcitonin [Ser^6,des-Leu^19 -SCT]”, the “biological potency (reduction of serum calcium concentration)” value [2] is reported as 8400 IU/mg.

For “eel calcitonin (CSNLSTCVLGKLSQELHKLQTYPRTDVGAGTP-NH2; disulfide 1-7; ends not checked; UniProt P01262 1-32, looked up) [synthetic eel calcitonin, synthetic eel calcitonin from Monikawa et al]”, the hypocalcemic potency [1] is listed as “around 4300 IU/mg”.
